Reference: ChEMBL document CHEMBL4373641, “Synthesis and direct comparison of the anticancer activities of phomopsolides D and E and two 7-oxa-/7-aza-analogues” (Medchemcomm, 2019)

What was measured:
Assay type in all cases: functional, cell-based
[1] = test system: HT-29; assay: Antiproliferative activity against human HT-29 cells assessed as reduction in cell viability after 48 hrs by SRB assay; conditions: HT-29, 48 h
[2] = test system: KM12; assay: Antiproliferative activity against human KM12 cells assessed as reduction in cell viability after 48 hrs by SRB assay; conditions: KM12, 48 h
[3] = test system: HCT-15; assay: Antiproliferative activity against human HCT15 cells assessed as reduction in cell viability after 48 hrs by SRB assay; conditions: HCT-15, 48 h
[4] = test system: HCT-116; assay: Antiproliferative activity against human HCT116 cells assessed as reduction in cell viability after 48 hrs by SRB assay; conditions: HCT-116, 48 h
[5] = test system: HCC 2998; assay: Antiproliferative activity against human HCC2998 cells assessed as reduction in cell viability after 48 hrs by SRB assay; conditions: HCC 2998, 48 h
[6] = test system: COLO 205; assay: Antiproliferative activity against human COLO205 cells assessed as reduction in cell viability after 48 hrs by SRB assay; conditions: COLO 205, 48 h
[7] = test system: NCI-H522; assay: Antiproliferative activity against human NCI-H522 cells assessed as reduction in cell viability after 48 hrs by SRB assay; conditions: NCI-H522, 48 h, pooled result: one value given for 8 cell lines, strains, targets or settings
[8] = test system: RPMI-8226; assay: Antiproliferative activity against human RPMI8226 cells assessed as reduction in cell viability after 48 hrs by SRB assay; conditions: RPMI-8226, 48 h
[9] = test system: MOLT-4; assay: Antiproliferative activity against human MOLT4 cells assessed as reduction in cell viability after 48 hrs by SRB assay; conditions: MOLT-4, 48 h
[10] = test system: K562; assay: Antiproliferative activity against human K562 cells assessed as reduction in cell viability after 48 hrs by SRB assay; conditions: K562, 48 h
[11] = test system: HL-60(TB); assay: Antiproliferative activity against human HL-60(TB) cells assessed as reduction in cell viability after 48 hrs by SRB assay; conditions: HL-60, 48 h
[12] = test system: CCRF-CEM; assay: Antiproliferative activity against human CCRF-CEM cells assessed as reduction in cell viability after 48 hrs by SRB assay
[13] = test system: SK-OV-3; assay: Antiproliferative activity against human SKOV3 cells assessed as reduction in cell viability after 48 hrs by SRB assay; conditions: SK-OV-3, 48 h
[14] = test system: OVCAR-8; assay: Antiproliferative activity against human OVCAR8 cells assessed as reduction in cell viability after 48 hrs by SRB assay; conditions: OVCAR-8, 48 h
[15] = test system: OVCAR-5; assay: Antiproliferative activity against human OVCAR5 cells assessed as reduction in cell viability after 48 hrs by SRB assay; conditions: OVCAR-5, 48 h
[16] = test system: OVCAR-4; assay: Antiproliferative activity against human OVCAR4 cells assessed as reduction in cell viability after 48 hrs by SRB assay; conditions: OVCAR-4, 48 h
[17] = test system: OVCAR-3; assay: Antiproliferative activity against human OVCAR3 cells assessed as reduction in cell viability after 48 hrs by SRB assay; conditions: OVCAR-3, 48 h
[18] = test system: IGROV-1; assay: Antiproliferative activity against human IGROV1 cells assessed as reduction in cell viability after 48 hrs by SRB assay; conditions: IGROV-1, 48 h
[19] = test system: UO-31; assay: Antiproliferative activity against human UO31 cells assessed as reduction in cell viability after 48 hrs by SRB assay; conditions: UO-31, 48 h
[20] = test system: TK-10; assay: Antiproliferative activity against human TK10 cells assessed as reduction in cell viability after 48 hrs by SRB assay; conditions: TK-10, 48 h
[21] = test system: SN12C; assay: Antiproliferative activity against human SN12C cells assessed as reduction in cell viability after 48 hrs by SRB assay
[22] = test system: RXF 393; assay: Antiproliferative activity against human RXF393 cells assessed as reduction in cell viability after 48 hrs by SRB assay; conditions: RXF 393, 48 h
[23] = test system: CAKI-1; assay: Antiproliferative activity against human CAKI-1 cells assessed as reduction in cell viability after 48 hrs by SRB assay; conditions: CAKI-1, 48 h
[24] = test system: ACHN; assay: Antiproliferative activity against human ACHN cells assessed as reduction in cell viability after 48 hrs by SRB assay
[25] = test system: A498; assay: Antiproliferative activity against human A498 cells assessed as reduction in cell viability after 48 hrs by SRB assay; conditions: A498, 48 h
[26] = test system: 786-0; assay: Antiproliferative activity against human 786-0 cells assessed as reduction in cell viability after 48 hrs by SRB assay; conditions: 786-0, 48 h
[27] = test system: DU-145; assay: Antiproliferative activity against human DU145 cells assessed as reduction in cell viability after 48 hrs by SRB assay; conditions: DU-145, 48 h
[28] = test system: PC-3; assay: Antiproliferative activity against human PC3 cells assessed as reduction in cell viability after 48 hrs by SRB assay; conditions: PC-3, 48 h
[29] = test system: T47D; assay: Antiproliferative activity against human T47D cells assessed as reduction in cell viability after 48 hrs by SRB assay
[30] = test system: MDA-MB-435; assay: Antiproliferative activity against human MDA-MB-435 cells assessed as reduction in cell viability after 48 hrs by SRB assay; conditions: MDA-MB-435, 48 h
[31] = test system: Hs-578T; assay: Antiproliferative activity against human Hs 578T cells assessed as reduction in cell viability after 48 hrs by SRB assay
[32] = test system: MDA-MB-231; assay: Antiproliferative activity against human MDA-MB-231 cells assessed as reduction in cell viability after 48 hrs by SRB assay; conditions: MDA-MB-231, 48 h
[33] = test system: NCI/ADR-RES; assay: Antiproliferative activity against human NCI/ADR-RES cells assessed as reduction in cell viability after 48 hrs by SRB assay
[34] = test system: MCF7; assay: Antiproliferative activity against human MCF7 cells assessed as reduction in cell viability after 48 hrs by SRB assay; conditions: MCF7, 48 h
[35] = test system: U-251; assay: Antiproliferative activity against human U251 cells assessed as reduction in cell viability after 48 hrs by SRB assay; conditions: U-251, 48 h
[36] = test system: SNB-75; assay: Antiproliferative activity against human SNB75 cells assessed as reduction in cell viability after 48 hrs by SRB assay; conditions: SNB-75, 48 h
[37] = test system: SNB-19; assay: Antiproliferative activity against human SNB19 cells assessed as reduction in cell viability after 48 hrs by SRB assay; conditions: SNB-19, 48 h
[38] = test system: SF-539; assay: Antiproliferative activity against human SF539 cells assessed as reduction in cell viability after 48 hrs by SRB assay; conditions: SF-539, 48 h
[39] = test system: SF-295; assay: Antiproliferative activity against human SF295 cells assessed as reduction in cell viability after 48 hrs by SRB assay; conditions: SF-295, 48 h
[40] = test system: SF-268; assay: Antiproliferative activity against human SF268 cells assessed as reduction in cell viability after 48 hrs by SRB assay; conditions: SF-268, 48 h
[41] = test system: UACC-62; assay: Antiproliferative activity against human UACC62 cells assessed as reduction in cell viability after 48 hrs by SRB assay; conditions: UACC-62, 48 h, pooled result: one value given for 8 cell lines, strains, targets or settings
[42] = test system: SW-620; assay: Antiproliferative activity against human SW620 cells assessed as reduction in cell viability after 48 hrs by SRB assay; conditions: SW-620, 48 h
[43] = test system: HOP-92; assay: Antiproliferative activity against human HOP92 cells assessed as reduction in cell viability after 48 hrs by SRB assay; conditions: HOP-92, 48 h
[44] = test system: BT-549; assay: Antiproliferative activity against human BT549 cells assessed as reduction in cell viability after 48 hrs by SRB assay; conditions: BT-549, 48 h
[45] = test system: MDA-MB-468; assay: Antiproliferative activity against human MDA-MB-468 cells assessed as reduction in cell viability after 48 hrs by SRB assay; conditions: MDA-MB-468, 48 h
[46] = test system: SR; assay: Antiproliferative activity against human SR cells assessed as reduction in cell viability after 48 hrs by SRB assay

C/C=C(\C)C(=O)O[C@H]1C=CC(=O)O[C@H]1COC(=O)[C@H](C)O
IC50 [1]: 11 µM
IC50 [2]: 11 µM
IC50 [3]: 11 µM
IC50 [4]: 11 µM
IC50 [5]: 11 µM
IC50 [6]: 11 µM
IC50 [7]: 19 µM
IC50 [8]: 2 to 49 µM
IC50 [9]: 2 to 49 µM
IC50 [10]: 2 to 49 µM
IC50 [11]: 2 to 49 µM
IC50 [12]: 2 to 49 µM
IC50 [13]: 16 µM
IC50 [14]: 16 µM
IC50 [15]: 16 µM
IC50 [16]: 16 µM
IC50 [17]: 16 µM
IC50 [18]: 16 µM
IC50 [19]: 15 µM
IC50 [20]: 15 µM
IC50 [21]: 15 µM
IC50 [22]: 15 µM
IC50 [23]: 15 µM
IC50 [24]: 15 µM
IC50 [25]: 15 µM
IC50 [26]: 15 µM
IC50 [27]: 16 µM
IC50 [28]: 16 µM
IC50 [29]: 12 µM
IC50 [30]: 12 µM
IC50 [31]: 12 µM
IC50 [32]: 12 µM
IC50 [33]: 12 µM
IC50 [34]: 12 µM
IC50 [35]: 16 µM
IC50 [36]: 16 µM
IC50 [37]: 16 µM
IC50 [38]: 16 µM
IC50 [39]: 16 µM
IC50 [40]: 16 µM
IC50 [41]: 13 µM
IC50 [42]: 11 µM
IC50 [43]: 2 to 49 µM
IC50 [44]: 2 to 49 µM
IC50 [45]: 2 to 49 µM
IC50 [46]: 2 to 49 µM

C/C=C(\C)C(=O)O[C@H]1C=CC(=O)O[C@H]1CCC(=O)[C@H](C)O
IC50 [1]: 18 µM
IC50 [2]: 18 µM
IC50 [3]: 18 µM
IC50 [4]: 18 µM
IC50 [5]: 18 µM
IC50 [6]: 18 µM
IC50 [7]: 26 µM
IC50 [8]: 2 to 49 µM
IC50 [9]: 2 to 49 µM
IC50 [10]: 2 to 49 µM
IC50 [11]: 2 to 49 µM
IC50 [12]: 2 to 49 µM
IC50 [13]: 2 to 49 µM
IC50 [14]: 2 to 49 µM
IC50 [15]: 2 to 49 µM
IC50 [16]: 2 to 49 µM
IC50 [17]: 2 to 49 µM
IC50 [18]: 2 to 49 µM
IC50 [19]: 2 to 49 µM
IC50 [20]: 2 to 49 µM
IC50 [21]: 2 to 49 µM
IC50 [22]: 2 to 49 µM
IC50 [23]: 2 to 49 µM
IC50 [24]: 2 to 49 µM
IC50 [25]: 2 to 49 µM
IC50 [26]: 2 to 49 µM
IC50 [27]: 23 µM
IC50 [28]: 23 µM
IC50 [29]: 20 µM
IC50 [30]: 20 µM
IC50 [31]: 20 µM
IC50 [32]: 20 µM
IC50 [33]: 20 µM
IC50 [34]: 20 µM
IC50 [35]: 2 to 49 µM
IC50 [36]: 2 to 49 µM
IC50 [37]: 2 to 49 µM
IC50 [38]: 2 to 49 µM
IC50 [39]: 2 to 49 µM
IC50 [40]: 2 to 49 µM
IC50 [41]: 24 µM
IC50 [42]: 18 µM
IC50 [43]: 2 to 49 µM
IC50 [44]: 2 to 49 µM
IC50 [45]: 2 to 49 µM
IC50 [46]: 2 to 49 µM

C/C=C(\C)C(=O)O[C@H]1C=CC(=O)O[C@H]1CNC(=O)[C@H](C)O
IC50 [1]: 25 µM
IC50 [2]: 25 µM
IC50 [3]: 25 µM
IC50 [4]: 25 µM
IC50 [5]: 25 µM
IC50 [6]: 25 µM
IC50 [7]: 27 µM
IC50 [8]: 2 to 49 µM
IC50 [9]: 2 to 49 µM
IC50 [10]: 2 to 49 µM
IC50 [11]: 2 to 49 µM
IC50 [12]: 2 to 49 µM
IC50 [13]: 2 to 49 µM
IC50 [14]: 2 to 49 µM
IC50 [15]: 2 to 49 µM
IC50 [16]: 2 to 49 µM
IC50 [17]: 2 to 49 µM
IC50 [18]: 2 to 49 µM
IC50 [19]: 30 µM
IC50 [20]: 30 µM
IC50 [21]: 30 µM
IC50 [22]: 30 µM
IC50 [23]: 30 µM
IC50 [24]: 30 µM
IC50 [25]: 30 µM
IC50 [26]: 30 µM
IC50 [27]: 25 µM
IC50 [28]: 25 µM
IC50 [29]: 2 to 49 µM
IC50 [30]: 2 to 49 µM
IC50 [31]: 2 to 49 µM
IC50 [32]: 2 to 49 µM
IC50 [33]: 2 to 49 µM
IC50 [34]: 2 to 49 µM
IC50 [35]: 2 to 49 µM
IC50 [36]: 2 to 49 µM
IC50 [37]: 2 to 49 µM
IC50 [38]: 2 to 49 µM
IC50 [39]: 2 to 49 µM
IC50 [40]: 2 to 49 µM
IC50 [41]: 28 µM
IC50 [42]: 25 µM
IC50 [43]: 2 to 49 µM
IC50 [44]: 2 to 49 µM
IC50 [45]: 2 to 49 µM
IC50 [46]: 2 to 49 µM
